Patent US20020072601A1, “Method for forming amino acid derivatives from tricyclic diketopiperazines” (University of Southern Mississippi, priority 2000, published 2002)

Experiment: Gelation studies: minimum concentration needed for solvent gelation
Format: physicochemical
Settings: cooled to room temperature
Procedure: The ring-opening reaction of PyDKP with certain nucleophiles (Reaction 3) forms a class of pyroglutamate derivatives that gel organic solvents. In these experiments, the solubility and minimum concentration needed for solvent gelation were determined. Tetradecyl pyroglutamide was placed in various solvents which were then heated to their boiling point, except silicone and soybean oil, which were heated to 150° C. to prevent decomposition of the gelator. In most cases, regardless of partial insolubility in some instances, the various solvents formed immobile gels upon cooling to room temperature. All of the gels were thermoreversible, meaning the gel would revert back to liquid with the application of heat and then reform with cooling.

CCCCCCCCCCCCCCNC(=O)[C@@H]1CCC(=O)N1 [N-tetradecyl pyroglutamide, N-Pyroglutamyl tetradecylamine]
gel Concentration (1-Propanol): 50 g/L
gel Concentration (Acetonitrile): 15 g/L
gel Concentration (Benzene): 100 g/L
gel Concentration (Butanol): 100 g/L
gel Concentration (Chloroform): 160 g/L
gel Concentration (Dichioromethane): 50 g/L
gel Concentration (Ethanol): 30 g/L
gel Concentration (Methanol): 30 g/L
gel Concentration (Silicone Oil): 11 g/L
gel Concentration (Soybean Oil): 11 g/L
